Experimental data: patent US7772252B2, “Heterocyclic substituted carbonyl derivatives and their use as dopamine D3 receptor ligands” (Aventis Pharmaceuticals Inc., priority 2001, dated 2010)

Target: T1, cloned human dopamine D3 receptors (Homo sapiens, UniProt P35462)
T1 construct: expressed in transfected cells; membrane homogenate
Assay: [N-Methyl-3H]Spiroperidol binding to cloned human dopamine D3 receptors
Conditions: D3 Ki
How it was run: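 Radioligand displacement with [N-methyl-3H]spiroperidol was run on membranes from a high-expressing CHO clone carrying human D3. Membranes were prepared in 10% DMSO and stored at −80° C.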

T1 sequence (P35462 whole entry): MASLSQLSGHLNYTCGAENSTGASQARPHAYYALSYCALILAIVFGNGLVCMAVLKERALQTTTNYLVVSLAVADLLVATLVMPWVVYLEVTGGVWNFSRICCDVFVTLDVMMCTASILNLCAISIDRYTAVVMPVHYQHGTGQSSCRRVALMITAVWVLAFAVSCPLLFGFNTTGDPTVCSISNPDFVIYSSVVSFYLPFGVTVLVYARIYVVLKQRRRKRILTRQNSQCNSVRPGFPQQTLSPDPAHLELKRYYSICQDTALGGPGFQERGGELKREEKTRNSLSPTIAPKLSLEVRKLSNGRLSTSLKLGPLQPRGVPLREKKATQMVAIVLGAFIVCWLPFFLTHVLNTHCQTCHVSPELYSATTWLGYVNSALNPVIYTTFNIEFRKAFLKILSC

SMILES	Ki [nM]
O=C([C@@H]1C[C@H]1CN1CCN(c2csc3cc(C(F)(F)F)ccc23)CC1)N1CCC(Nc2ccc(Cl)cc2)CC1 [compound 832495]	63.6

Same assay, conditions: read-out: D3 Ki

SMILES	Ki [nM]
O=C([C@@H]1C[C@H]1CN1CCC(c2noc3ccsc23)CC1)N1CCC(Cn2ccnc2)CC1 [compound 831957]	63.2
O=C([C@@H]1C[C@H]1CN1CCN(c2csc3cc(C(F)(F)F)ccc23)CC1)N1CCC(Cn2ccnc2)CC1 [compound 831958]	13
COc1cccc2c(C3CCN(C[C@@H]4C[C@H]4C(=O)NCCCc4ccccc4)CC3)noc12 [compound 832102]	81.5
COc1cccc2c(C3CCN(C[C@@H]4C[C@H]4C(=O)NCCCc4cccnc4)CC3)noc12 [compound 832104]	620
COc1cccc2c(C3CCN(C[C@@H]4C[C@H]4C(=O)NCCCN4CCCCC4)CC3)noc12 [compound 832108]	178
O=C(NCCCn1ccnc1)C1(CCN2CCC(c3noc4ccsc34)CC2)CC1 [compound 832171]	4.9
O=C(NCCc1ccccc1)C1(CCN2CCC(c3noc4ccsc34)CC2)CC1 [compound 832180]	91
Cn1nc(N2CCN(C[C@@H]3C[C@H]3C(=O)N3CCC(n4ccnc4)CC3)CC2)c2sccc21 [compound 832207]	54.8
O=C(CCCN1CCN(c2noc3ccsc23)CC1)N1CCC(n2ccnc2)CC1 [compound 832212]	302
CN1CCC[C@@H]1CCNC(=O)[C@@H]1C[C@H]1CN1CCN(c2csc3cc(C(F)(F)F)ccc23)CC1 [compound 832216]	76.5
O=C(N1CCCC1)C1(CCN2CCC(c3noc4ccsc34)CC2)CC1 [compound 832239]	207
O=C(NCCCN1CCOCC1)C1(CCN2CCC(c3noc4ccsc34)CC2)CC1 [compound 832240]	186
O=C(N[C@H]1CC[C@H](O)CC1)[C@@H]1C[C@H]1CN1CCC(c2noc3c(C(F)(F)F)cccc23)CC1 [compound 832271]	112
O=C(NCCCN1CCCCC1)[C@@H]1C[C@H]1CN1CCC(c2noc3c(C(F)(F)F)cccc23)CC1 [compound 832272]	145
O=C(NCCCn1ccnc1)[C@@H]1C[C@H]1CN1CCC(c2noc3c(C(F)(F)F)cccc23)CC1 [compound 832274]	52.4
O=C(N[C@H]1CC[C@H](O)CC1)C1(CCN2CCC(c3noc4ccsc34)CC2)CC1 [compound 832317]	943
O=C(NCCCc1cc[nH]c1)[C@@H]1C[C@H]1CN1CCN(c2csc3cc(C(F)(F)F)ccc23)CC1 [compound 832494]	25
N=C(N)N1CCC(CNC(=O)[C@@H]2C[C@H]2CN2CCN(c3csc4cc(C(F)(F)F)ccc34)CC2)CC1 [compound 832496]	3.66
O=C(NCCSc1ccc(Cl)cc1)[C@@H]1C[C@H]1CN1CCN(c2csc3cc(C(F)(F)F)ccc23)CC1 [compound 832497]	38
O=C(NCCN1CCNC1=O)[C@@H]1C[C@H]1CN1CCN(c2csc3cc(C(F)(F)F)ccc23)CC1 [compound 832498]	70.3
CC(C)(C)OC(=O)N1CCC(NC(=O)[C@@H]2C[C@H]2CN2CCN(c3csc4cc(C(F)(F)F)ccc34)CC2)CC1 [compound 832499]	19.7
O=C([C@@H]1C[C@H]1CN1CCN(c2csc3cc(C(F)(F)F)ccc23)CC1)N1CCC(N2CCCC2)CC1 [compound 832510]	25
O=C(NCCCN1CCCCCC1)[C@@H]1C[C@H]1CN1CCN(c2csc3cc(C(F)(F)F)ccc23)CC1 [compound 832511]	12.3

SMILES	Ki [nM]
Cc1nc(Cl)c(Cl)n1CCCNC(=O)[C@@H]1C[C@H]1CN1CCN(c2csc3cc(C(F)(F)F)ccc23)CC1 [compound 832512]	15.7
CC[C@H]1CC[C@H](NC(=O)C2(CCN3CCN(c4csc5cc(C(F)(F)F)ccc45)CC3)CC2)CC1 [compound 832517]	173
O=C(NCCCN1CCOCC1)C1(CCN2CCN(c3csc4cc(C(F)(F)F)ccc34)CC2)CC1 [compound 832518]	98.2
O=C(NCCc1ccccc1)C1(CCN2CCN(c3csc4cc(C(F)(F)F)ccc34)CC2)CC1 [compound 832519]	97.5
O=C(N[C@H]1CC[C@H](O)CC1)C1(CCN2CCN(c3csc4cc(C(F)(F)F)ccc34)CC2)CC1 [compound 832520]	141
O=C([C@@H]1C[C@H]1CN1CCC(c2noc3ccsc23)CC1)N1CCC(c2nc3ccccc3s2)CC1 [compound 832527]	45.4
O=C(NCCS(=O)(=O)c1cccc2c(Cl)cccc12)[C@@H]1C[C@H]1CN1CCC(c2noc3ccsc23)CC1 [compound 832528]	48.5
O=C(NCCN1CCNC1=O)[C@@H]1C[C@H]1CN1CCC(c2noc3ccsc23)CC1 [compound 832529]	146
O=C(NCCCCc1cccnc1)[C@@H]1C[C@H]1CN1CCC(c2noc3ccsc23)CC1 [compound 832530]	16
O=C([C@@H]1C[C@H]1CN1CCC(c2noc3ccsc23)CC1)N1CCC(n2c(=O)[nH]c3ccccc32)CC1 [compound 832531]	67.7
O=C([C@@H]1C[C@H]1CN1CCC(c2noc3ccsc23)CC1)N1CCN(Cc2ccc(Cl)c(Cl)c2)CC1 [compound 832532]	14.4
O=C(NCCCn1ccnc1)[C@@H]1C[C@H]1CN1CCN(c2nn(-c3ccc(F)cc3)c3ccsc23)CC1 [compound 832565]	1.45
O=C(N[C@H]1CC[C@H](O)CC1)[C@@H]1C[C@H]1CN1CCN(c2nn(-c3ccc(F)cc3)c3ccsc23)CC1 [compound 832566]	1.76
CN1CCC(N(C)C(=O)[C@@H]2C[C@H]2CN2CCN(c3csc4cc(C(F)(F)F)ccc34)CC2)CC1 [compound 832577]	1.85
CN1CCN(CCCNC(=O)[C@@H]2C[C@H]2CN2CCN(c3csc4cc(C(F)(F)F)ccc34)CC2)CC1 [compound 832579]	6.29
CN(C)CCN1CCN(C(=O)[C@@H]2C[C@H]2CN2CCN(c3csc4cc(C(F)(F)F)ccc34)CC2)CC1 [compound 832580]	28.8
O=C([C@@H]1C[C@H]1CN1CCN(c2csc3cc(C(F)(F)F)ccc23)CC1)N1CCN(CCOCCO)CC1 [compound 832581]	67.3
CC(C)NC(=O)CN1CCN(C(=O)[C@@H]2C[C@H]2CN2CCN(c3csc4cc(C(F)(F)F)ccc34)CC2)CC1 [compound 832582]	25
O=C(NC1CCN(Cc2ncc[nH]2)CC1)[C@@H]1C[C@H]1CN1CCN(c2csc3cc(C(F)(F)F)ccc23)CC1 [compound 832583]	1.61
O=C(NCCCn1ccnc1)[C@@H]1C[C@H]1CN1CCN(c2nn(-c3ccccc3)c3ccsc23)CC1 [compound 832592]	7.29
O=C(NCCCn1ccnc1)[C@@H]1C[C@H]1CN1CCN(c2nn(-c3ccc(C(F)(F)F)cc3)c3ccsc23)CC1 [compound 832634]	7.63
O=C(N[C@H]1CC[C@H](O)CC1)[C@@H]1C[C@H]1CN1CCN(c2nn(-c3ccc(C(F)(F)F)cc3)c3ccsc23)CC1 [compound 832648]	20.8
O=C(NCCCN1CCCCC1)[C@@H]1C[C@H]1CN1CCC(c2cc3ccccc3s2)CC1 [compound 832714]	12.4

SMILES	Ki [nM]
O=C([C@@H]1C[C@H]1CN1CCC(c2cc3ccccc3s2)CC1)N1CCC(N2CCCC2)CC1 [compound 832715]	166
O=C(NC1CCN(Cc2ccc(Cl)c(Cl)c2)CC1)[C@@H]1C[C@H]1CN1CCC(c2cc3ccccc3s2)CC1 [compound 832716]	7.54
O=C([C@@H]1C[C@H]1CN1CCC(c2noc3ccsc23)CC1)N1CCC(Oc2ccc(Cl)cc2)CC1 [compound 832723]	54
COc1ccccc1CN1CCC(NC(=O)[C@@H]2C[C@H]2CN2CCC(c3noc4ccsc34)CC2)CC1 [compound 832724]	1.44
O=C(NCCc1ccc(F)cc1)[C@@H]1C[C@H]1CN1CCC(c2noc3ccsc23)CC1 [compound 832725]	4.22
O=C(NCCc1cccc(F)c1)[C@@H]1C[C@H]1CN1CCC(c2noc3ccsc23)CC1 [compound 832726]	7.05
O=C(NC1CCN(Cc2cccc(Cl)c2)CC1)[C@@H]1C[C@H]1CN1CCC(c2noc3ccsc23)CC1 [compound 832728]	3.12
O=C(NC1CCN(Cc2ccc(Cl)cc2)CC1)[C@@H]1C[C@H]1CN1CCC(c2noc3ccsc23)CC1 [compound 832729]	1.67
O=C(NC1CCN(Cc2ccccc2Cl)CC1)[C@@H]1C[C@H]1CN1CCC(c2noc3ccsc23)CC1 [compound 832730]	3.62
O=C(NC1CCN(Cc2ccc(Cl)c(Cl)c2)CC1)[C@@H]1C[C@H]1CN1CCC(c2noc3ccsc23)CC1 [compound 832731]	0.699
O=C(NC1CCN(Cc2ccc(F)cc2)CC1)[C@@H]1C[C@H]1CN1CCC(c2noc3ccsc23)CC1 [compound 832732]	0.74
O=C(NC1CCN(CC2CCCCC2)CC1)[C@@H]1C[C@H]1CN1CCC(c2noc3ccsc23)CC1 [compound 832733]	0.656
O=C([C@@H]1C[C@H]1CN1CCN(c2csc3cc(C(F)(F)F)ccc23)CC1)N1CCN(CCO)CC1 [compound 832735]	36.8
O=C(NC1CCN(Cc2ccc(Cl)cc2)CC1)[C@@H]1C[C@H]1CN1CCN(c2csc3cc(C(F)(F)F)ccc23)CC1 [compound 832737]	5.42
COc1ccccc1CN1CCC(NC(=O)[C@@H]2C[C@H]2CN2CCN(c3csc4cc(C(F)(F)F)ccc34)CC2)CC1 [compound 832739]	2.89
O=C(NC1CCN(Cc2cccc(Cl)c2)CC1)[C@@H]1C[C@H]1CN1CCN(c2csc3cc(C(F)(F)F)ccc23)CC1 [compound 832740]	30.2
O=C(NC1CCN(Cc2ccccc2Cl)CC1)[C@@H]1C[C@H]1CN1CCN(c2csc3cc(C(F)(F)F)ccc23)CC1 [compound 832741]	6.03
COc1ccc2c(c1)c(N1CCN(C[C@@H]3C[C@H]3C(=O)NC3CCN(CC4CCCCC4)CC3)CC1)nn2C [compound 832743]	2.36
COc1ccc2c(c1)c(N1CCN(C[C@@H]3C[C@H]3C(=O)NC3CCN(CC4CC4)CC3)CC1)nn2C [compound 832744]	1.37
COc1ccc2c(c1)c(N1CCN(C[C@@H]3C[C@H]3C(=O)N(C)C3CCN(C)CC3)CC1)nn2C [compound 832745]	15
Cc1cccc(CN2CCC(NC(=O)[C@@H]3C[C@H]3CN3CCC(c4noc5ccsc45)CC3)CC2)c1 [compound 832788]	1.84
